# According to the kinase profiling compilation of Christmann-Franck et al. (2016):
# Experiments:
# Assay in all cases: radiometric filter-binding kinase assay, Kinase HotSpot
# Conditions in all cases: compound 0.5 µM; ATP 10 µM
# AKT1 (human) = AKT1 (human) (UniProt P31749)
# BLK (human) = BLK (human) (UniProt P51451)
# CAMK2B (human) = CAMK2B (human) (UniProt Q13554)
# CAMKK1 (human) = CAMKK1 (human) (UniProt Q8N5S9)
# CDK2 CCNA2 (human) = CDK2 CCNA2 (human) (UniProt P24941+P20248)
# CDK5 CDK5R1 p25 (human) = CDK5 CDK5R1 p25 (human) (UniProt Q00535+Q15078)
# CSNK1G3 (human) = CSNK1G3 (human) (UniProt Q9Y6M4)
# DAPK2 (human) = DAPK2 (human) (UniProt Q9UIK4)
# DDR2 (human) = DDR2 (human) (UniProt Q16832)
# DSTYK (human) = DSTYK (human) (UniProt Q6XUX3)
# FES (human) = FES (human) (UniProt P07332)
# FGFR1 (human) = FGFR1 (human) (UniProt P11362)
# FLT3 (human) = FLT3 (human) (UniProt P36888)
# GRK7 (human) = GRK7 (human) (UniProt Q8WTQ7)
# HIPK1 (human) = HIPK1 (human) (UniProt Q86Z02)
# ITK (human) = ITK (human) (UniProt Q08881)
# JAK2 JH1 JH2 (human) = JAK2 JH1 JH2 (human) (UniProt O60674)
# JAK3 JH1 JH2 (human) = JAK3 JH1 JH2 (human) (UniProt P52333)
# LIMK1 (human) = LIMK1 (human) (UniProt P53667)
# MAP2K1 (human) = MAP2K1 (human) (UniProt Q02750)
# MAPK3 (human) = MAPK3 (human) (UniProt P27361)
# MAPKAPK2 (human) = MAPKAPK2 (human) (UniProt P49137)
# MELK (human) = MELK (human) (UniProt Q14680)
# NTRK1 (human) = NTRK1 (human) (UniProt P04629)
# PAK3 (human) = PAK3 (human) (UniProt O75914)
# PAK4 (human) = PAK4 (human) (UniProt O96013)
# PDGFRA (human) = PDGFRA (human) (UniProt P16234)
# PDGFRB (human) = PDGFRB (human) (UniProt P09619)
# PDPK1 (human) = PDPK1 (human) (UniProt O15530)
# PHKG2 (human) = PHKG2 (human) (UniProt P15735)
# PIM3 (human) = PIM3 (human) (UniProt Q86V86)
# PRKCE (human) = PRKCE (human) (UniProt Q02156)
# PRKD2 (human) = PRKD2 (human) (UniProt Q9BZL6)
# PTK2 (human) = PTK2 (human) (UniProt Q05397)
# RPS6KA4 KD2 (human) = RPS6KA4 KD2 (human) (UniProt O75676)
# RPS6KA5 KD2 (human) = RPS6KA5 KD2 (human) (UniProt O75582)
# SLK (human) = SLK (human) (UniProt Q9H2G2)
# STK11 (human) = STK11 (human) (UniProt Q15831)
# TEC (human) = TEC (human) (UniProt P42680)
# TXK (human) = TXK (human) (UniProt P42681)
# [1] = target: TYK2 JH1 catalytic (human) (UniProt P29597)
# MAPKAPK5 (human) = MAPKAPK5 (human) (UniProt Q8IW41)
# Chain of MAPK3 (human) (P27361 whole entry, looked up): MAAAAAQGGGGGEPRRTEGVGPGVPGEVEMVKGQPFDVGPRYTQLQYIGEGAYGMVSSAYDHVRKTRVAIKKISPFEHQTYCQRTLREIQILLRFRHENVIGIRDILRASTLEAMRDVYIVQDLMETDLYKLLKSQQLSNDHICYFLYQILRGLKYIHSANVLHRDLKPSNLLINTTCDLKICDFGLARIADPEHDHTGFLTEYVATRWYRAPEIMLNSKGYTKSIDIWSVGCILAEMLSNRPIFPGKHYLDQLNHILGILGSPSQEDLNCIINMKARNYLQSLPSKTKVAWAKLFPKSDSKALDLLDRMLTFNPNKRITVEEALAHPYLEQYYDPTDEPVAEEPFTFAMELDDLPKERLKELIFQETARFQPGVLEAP
# Chain of PDPK1 (human) (O15530 whole entry, looked up): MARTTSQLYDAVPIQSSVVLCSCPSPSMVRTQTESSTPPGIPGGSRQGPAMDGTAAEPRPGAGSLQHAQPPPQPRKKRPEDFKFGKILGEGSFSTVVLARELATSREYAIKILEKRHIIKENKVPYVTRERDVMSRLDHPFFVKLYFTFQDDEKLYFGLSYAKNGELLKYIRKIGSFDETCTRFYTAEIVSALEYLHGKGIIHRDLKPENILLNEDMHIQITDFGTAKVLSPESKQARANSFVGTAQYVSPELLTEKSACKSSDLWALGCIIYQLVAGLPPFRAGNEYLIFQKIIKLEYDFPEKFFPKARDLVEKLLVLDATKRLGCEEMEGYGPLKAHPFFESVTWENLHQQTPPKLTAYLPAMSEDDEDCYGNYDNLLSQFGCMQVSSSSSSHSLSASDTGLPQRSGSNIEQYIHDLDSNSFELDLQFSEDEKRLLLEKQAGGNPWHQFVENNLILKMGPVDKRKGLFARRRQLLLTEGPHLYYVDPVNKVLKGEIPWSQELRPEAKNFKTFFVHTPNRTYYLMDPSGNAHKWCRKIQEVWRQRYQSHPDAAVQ
# Chain of PRKCE (human) (Q02156 whole entry, looked up): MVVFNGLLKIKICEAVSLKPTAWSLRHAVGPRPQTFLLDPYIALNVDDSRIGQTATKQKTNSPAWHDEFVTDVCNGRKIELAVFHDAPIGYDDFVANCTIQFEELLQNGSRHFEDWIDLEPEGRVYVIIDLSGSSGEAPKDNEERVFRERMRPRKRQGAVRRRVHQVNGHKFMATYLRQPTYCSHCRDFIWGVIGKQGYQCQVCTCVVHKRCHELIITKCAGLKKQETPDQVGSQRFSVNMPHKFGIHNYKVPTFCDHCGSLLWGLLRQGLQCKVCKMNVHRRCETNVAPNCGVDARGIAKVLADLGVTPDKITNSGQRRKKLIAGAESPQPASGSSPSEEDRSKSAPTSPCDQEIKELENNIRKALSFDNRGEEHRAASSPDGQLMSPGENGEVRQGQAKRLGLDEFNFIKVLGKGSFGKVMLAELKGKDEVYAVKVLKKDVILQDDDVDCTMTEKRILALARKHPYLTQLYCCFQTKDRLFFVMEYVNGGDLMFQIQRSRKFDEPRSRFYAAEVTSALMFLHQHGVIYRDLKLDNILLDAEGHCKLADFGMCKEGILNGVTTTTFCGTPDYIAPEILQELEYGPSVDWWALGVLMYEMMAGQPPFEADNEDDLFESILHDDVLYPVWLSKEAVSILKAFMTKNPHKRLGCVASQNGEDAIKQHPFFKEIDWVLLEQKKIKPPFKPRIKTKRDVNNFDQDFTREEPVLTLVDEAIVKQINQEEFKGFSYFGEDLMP
# Chain of HIPK1 (human) (Q86Z02 whole entry, looked up): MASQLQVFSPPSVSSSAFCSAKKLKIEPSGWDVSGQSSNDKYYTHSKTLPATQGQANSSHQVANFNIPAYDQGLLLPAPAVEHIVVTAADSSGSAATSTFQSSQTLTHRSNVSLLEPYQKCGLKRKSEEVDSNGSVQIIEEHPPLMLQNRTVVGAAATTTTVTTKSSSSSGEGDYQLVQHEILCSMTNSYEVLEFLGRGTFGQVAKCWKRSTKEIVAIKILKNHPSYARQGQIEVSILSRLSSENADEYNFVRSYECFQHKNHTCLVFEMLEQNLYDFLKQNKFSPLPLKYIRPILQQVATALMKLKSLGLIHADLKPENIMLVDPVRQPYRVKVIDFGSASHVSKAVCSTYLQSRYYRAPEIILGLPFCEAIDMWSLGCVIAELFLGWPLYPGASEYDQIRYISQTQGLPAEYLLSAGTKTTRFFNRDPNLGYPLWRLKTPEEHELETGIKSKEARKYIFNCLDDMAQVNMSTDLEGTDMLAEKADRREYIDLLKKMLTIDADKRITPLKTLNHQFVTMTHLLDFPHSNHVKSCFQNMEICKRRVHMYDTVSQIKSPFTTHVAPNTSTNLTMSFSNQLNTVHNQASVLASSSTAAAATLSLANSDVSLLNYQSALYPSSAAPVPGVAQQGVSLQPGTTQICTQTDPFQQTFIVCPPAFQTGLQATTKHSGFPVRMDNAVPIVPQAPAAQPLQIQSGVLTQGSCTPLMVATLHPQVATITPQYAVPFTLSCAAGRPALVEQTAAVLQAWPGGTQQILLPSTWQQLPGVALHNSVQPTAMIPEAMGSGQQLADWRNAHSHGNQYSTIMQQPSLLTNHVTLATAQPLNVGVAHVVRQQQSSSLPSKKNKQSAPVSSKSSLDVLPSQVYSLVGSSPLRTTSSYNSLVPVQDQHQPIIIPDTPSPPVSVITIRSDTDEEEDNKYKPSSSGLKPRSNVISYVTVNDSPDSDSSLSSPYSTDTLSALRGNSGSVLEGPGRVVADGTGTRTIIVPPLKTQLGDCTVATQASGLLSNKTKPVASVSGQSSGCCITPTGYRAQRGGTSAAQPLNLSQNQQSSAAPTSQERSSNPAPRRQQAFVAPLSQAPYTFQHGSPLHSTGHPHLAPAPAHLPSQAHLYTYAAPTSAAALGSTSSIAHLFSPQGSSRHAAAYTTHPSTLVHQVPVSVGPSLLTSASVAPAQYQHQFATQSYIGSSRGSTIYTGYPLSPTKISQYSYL
# Chain of PDGFRB (human) (P09619 whole entry, looked up): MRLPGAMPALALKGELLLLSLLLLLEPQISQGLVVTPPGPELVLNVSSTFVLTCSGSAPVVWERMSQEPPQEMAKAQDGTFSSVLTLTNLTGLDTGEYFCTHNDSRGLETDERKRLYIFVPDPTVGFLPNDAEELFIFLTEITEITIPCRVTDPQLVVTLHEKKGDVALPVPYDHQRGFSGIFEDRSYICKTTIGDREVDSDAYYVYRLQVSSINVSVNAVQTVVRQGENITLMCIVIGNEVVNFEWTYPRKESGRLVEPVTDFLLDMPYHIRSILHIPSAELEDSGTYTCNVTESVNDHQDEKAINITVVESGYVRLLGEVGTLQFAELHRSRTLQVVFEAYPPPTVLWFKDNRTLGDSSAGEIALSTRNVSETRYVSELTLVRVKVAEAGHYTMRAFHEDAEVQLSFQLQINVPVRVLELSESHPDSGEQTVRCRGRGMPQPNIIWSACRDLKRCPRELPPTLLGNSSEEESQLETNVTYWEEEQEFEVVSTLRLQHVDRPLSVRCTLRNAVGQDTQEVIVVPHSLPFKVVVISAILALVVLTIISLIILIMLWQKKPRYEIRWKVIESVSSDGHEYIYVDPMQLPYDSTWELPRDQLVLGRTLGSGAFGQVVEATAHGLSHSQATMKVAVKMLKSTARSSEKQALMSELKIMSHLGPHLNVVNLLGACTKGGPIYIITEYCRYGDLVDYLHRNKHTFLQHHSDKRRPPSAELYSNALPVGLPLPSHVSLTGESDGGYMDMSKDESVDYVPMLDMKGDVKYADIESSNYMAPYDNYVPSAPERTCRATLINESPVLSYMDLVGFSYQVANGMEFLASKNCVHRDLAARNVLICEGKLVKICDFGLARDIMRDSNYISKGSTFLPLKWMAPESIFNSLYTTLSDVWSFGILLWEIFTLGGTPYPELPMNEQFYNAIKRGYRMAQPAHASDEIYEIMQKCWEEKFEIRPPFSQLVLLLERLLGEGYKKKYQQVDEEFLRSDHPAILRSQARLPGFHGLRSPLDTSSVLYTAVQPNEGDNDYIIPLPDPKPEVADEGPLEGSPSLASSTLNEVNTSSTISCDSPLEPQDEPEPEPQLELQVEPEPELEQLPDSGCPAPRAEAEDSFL
# Chain of PTK2 (human) (Q05397 whole entry, looked up): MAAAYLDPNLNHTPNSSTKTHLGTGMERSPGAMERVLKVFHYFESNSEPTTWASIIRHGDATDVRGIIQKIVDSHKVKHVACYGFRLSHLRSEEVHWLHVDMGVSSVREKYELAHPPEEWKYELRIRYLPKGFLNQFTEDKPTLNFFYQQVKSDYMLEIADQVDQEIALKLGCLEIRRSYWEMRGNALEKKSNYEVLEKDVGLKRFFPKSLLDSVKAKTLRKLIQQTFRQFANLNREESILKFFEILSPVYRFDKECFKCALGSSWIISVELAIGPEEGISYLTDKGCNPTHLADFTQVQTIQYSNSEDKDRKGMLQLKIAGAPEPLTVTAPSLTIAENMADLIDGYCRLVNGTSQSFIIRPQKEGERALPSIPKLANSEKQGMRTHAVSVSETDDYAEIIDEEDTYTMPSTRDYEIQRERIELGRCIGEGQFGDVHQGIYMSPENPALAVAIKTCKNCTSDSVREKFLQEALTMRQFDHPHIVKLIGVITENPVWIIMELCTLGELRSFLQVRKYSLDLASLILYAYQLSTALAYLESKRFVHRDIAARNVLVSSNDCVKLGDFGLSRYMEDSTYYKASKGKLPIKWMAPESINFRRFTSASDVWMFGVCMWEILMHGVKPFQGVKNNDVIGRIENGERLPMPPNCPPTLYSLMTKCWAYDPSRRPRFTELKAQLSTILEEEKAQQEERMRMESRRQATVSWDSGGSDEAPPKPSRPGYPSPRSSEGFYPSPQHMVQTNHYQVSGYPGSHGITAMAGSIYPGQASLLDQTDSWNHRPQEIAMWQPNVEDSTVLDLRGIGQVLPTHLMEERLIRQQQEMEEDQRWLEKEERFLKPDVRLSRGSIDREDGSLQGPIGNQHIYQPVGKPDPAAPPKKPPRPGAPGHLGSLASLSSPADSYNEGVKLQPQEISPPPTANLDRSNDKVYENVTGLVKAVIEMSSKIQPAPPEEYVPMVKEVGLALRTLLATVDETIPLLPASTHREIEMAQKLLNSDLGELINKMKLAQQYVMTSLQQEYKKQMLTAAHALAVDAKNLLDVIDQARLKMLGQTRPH
structure (smiles),measurement,setting,value
O=C1NC(=O)/C(=C\c2ccc3nccnc3c2)S1,residual activity,AKT1 (human),98.3%
same,residual activity,BLK (human),99.4%
same,residual activity,CAMK2B (human),89.3%
same,residual activity,CAMKK1 (human),81.8%
same,residual activity,CDK2 CCNA2 (human),99.7%
same,residual activity,CDK5 CDK5R1 p25 (human),83.2%
same,residual activity,CSNK1G3 (human),79.9%
same,residual activity,DAPK2 (human),139%
same,residual activity,DDR2 (human),93.4%
same,residual activity,DSTYK (human),89.9%
same,residual activity,FES (human),96.4%
same,residual activity,FGFR1 (human),88.5%
same,residual activity,FLT3 (human),95.2%
same,residual activity,GRK7 (human),99.8%
same,residual activity,HIPK1 (human),104%
same,residual activity,ITK (human),91.2%
same,residual activity,JAK2 JH1 JH2 (human),97.4%
same,residual activity,JAK3 JH1 JH2 (human),97.2%
same,residual activity,LIMK1 (human),87.4%
same,residual activity,MAP2K1 (human),89.5%
same,residual activity,MAPK3 (human),87.8%
same,residual activity,MAPKAPK2 (human),97.7%
same,residual activity,MELK (human),90.7%
same,residual activity,NTRK1 (human),94.2%
same,residual activity,PAK3 (human),97.4%
same,residual activity,PAK4 (human),88.5%
same,residual activity,PDGFRA (human),106%
same,residual activity,PDGFRB (human),99.5%
same,residual activity,PDPK1 (human),104%
same,residual activity,PHKG2 (human),97.4%
same,residual activity,PIM3 (human),67.3%
same,residual activity,PRKCE (human),101%
same,residual activity,PRKD2 (human),104%
same,residual activity,PTK2 (human),96.5%
same,residual activity,RPS6KA4 KD2 (human),115%
same,residual activity,RPS6KA5 KD2 (human),87.8%
same,residual activity,SLK (human),96.3%
same,residual activity,STK11 (human),96.6%
same,residual activity,TEC (human),117%
same,residual activity,TXK (human),96.8%
same,residual activity,[1],85.2%
CC(C)c1nn(-c2c(Cl)cccc2Cl)c2nc(Cc3ccc(OCCO)cc3)nc(O)c12,residual activity,AKT1 (human),94.7%
same,residual activity,BLK (human),98.8%
same,residual activity,CAMK2B (human),104%
same,residual activity,CAMKK1 (human),100%
same,residual activity,CDK2 CCNA2 (human),1.96%
same,residual activity,CDK5 CDK5R1 p25 (human),2.54%
same,residual activity,CSNK1G3 (human),95.7%
same,residual activity,DAPK2 (human),88.3%
same,residual activity,DDR2 (human),96.3%
same,residual activity,DSTYK (human),93.1%
same,residual activity,FES (human),97.1%
same,residual activity,FGFR1 (human),84.2%
same,residual activity,FLT3 (human),74.2%
same,residual activity,GRK7 (human),106%
same,residual activity,HIPK1 (human),102%
same,residual activity,ITK (human),98.6%
same,residual activity,JAK2 JH1 JH2 (human),98.3%
same,residual activity,JAK3 JH1 JH2 (human),103%
same,residual activity,LIMK1 (human),107%
same,residual activity,MAP2K1 (human),99.7%
same,residual activity,MAPK3 (human),101%
same,residual activity,MAPKAPK2 (human),95.4%
same,residual activity,MELK (human),84%
same,residual activity,NTRK1 (human),89%
same,residual activity,PAK3 (human),94.8%
same,residual activity,PAK4 (human),106%
same,residual activity,PDGFRA (human),91.6%
same,residual activity,PDGFRB (human),98.9%
same,residual activity,PDPK1 (human),94.9%
same,residual activity,PHKG2 (human),102%
same,residual activity,PIM3 (human),105%
same,residual activity,PRKCE (human),90.5%
same,residual activity,PRKD2 (human),88.4%
same,residual activity,PTK2 (human),103%
same,residual activity,RPS6KA4 KD2 (human),95.3%
same,residual activity,RPS6KA5 KD2 (human),85.6%
same,residual activity,SLK (human),86.9%
same,residual activity,STK11 (human),47.7%
same,residual activity,TEC (human),105%
same,residual activity,TXK (human),101%
same,residual activity,[1],111%
O=C1Cc2c([nH]c3ccc(Br)cc23)-c2ccccc2N1,residual activity,AKT1 (human),99.9%
same,residual activity,CAMK2B (human),97.8%
same,residual activity,CAMKK1 (human),99.8%
same,residual activity,CDK2 CCNA2 (human),37.4%
same,residual activity,CDK5 CDK5R1 p25 (human),64.8%
same,residual activity,CSNK1G3 (human),103%
same,residual activity,DAPK2 (human),100%
same,residual activity,DDR2 (human),98.4%
same,residual activity,DSTYK (human),98.6%
same,residual activity,FES (human),87.8%
same,residual activity,FGFR1 (human),99.4%
same,residual activity,FLT3 (human),47.7%
same,residual activity,GRK7 (human),100%
same,residual activity,ITK (human),102%
same,residual activity,JAK2 JH1 JH2 (human),102%
same,residual activity,JAK3 JH1 JH2 (human),103%
same,residual activity,LIMK1 (human),99.2%
same,residual activity,MAP2K1 (human),84.3%
same,residual activity,MAPK3 (human),100%
same,residual activity,MAPKAPK2 (human),101%
same,residual activity,MAPKAPK5 (human),94.6%
same,residual activity,MELK (human),74.8%
same,residual activity,PAK3 (human),96.6%
same,residual activity,PAK4 (human),92.2%
same,residual activity,PDGFRA (human),103%
same,residual activity,PDGFRB (human),93.2%
same,residual activity,PDPK1 (human),94.9%
same,residual activity,PHKG2 (human),98.9%
same,residual activity,PIM3 (human),84.6%
same,residual activity,PRKCE (human),96.9%
same,residual activity,PRKD2 (human),100%
same,residual activity,PTK2 (human),94.3%
same,residual activity,RPS6KA4 KD2 (human),108%
same,residual activity,RPS6KA5 KD2 (human),99.6%
same,residual activity,SLK (human),95.7%
same,residual activity,STK11 (human),95.7%
same,residual activity,TEC (human),96.4%
same,residual activity,TXK (human),82.6%
same,residual activity,[1],81.7%
COc1ccc(CNC(=O)Nc2ncc([N+](=O)[O-])s2)cc1,residual activity,AKT1 (human),102%
same,residual activity,CAMK2B (human),103%
same,residual activity,CAMKK1 (human),119%
same,residual activity,CDK2 CCNA2 (human),93.3%
same,residual activity,CDK5 CDK5R1 p25 (human),97.7%
same,residual activity,CSNK1G3 (human),90.4%
same,residual activity,DAPK2 (human),93.3%
same,residual activity,DDR2 (human),100%
same,residual activity,DSTYK (human),96.2%
same,residual activity,FES (human),97.7%
same,residual activity,FGFR1 (human),98.9%
same,residual activity,FLT3 (human),98.9%
same,residual activity,GRK7 (human),103%
same,residual activity,HIPK1 (human),100%
same,residual activity,ITK (human),89.5%
same,residual activity,JAK2 JH1 JH2 (human),104%
same,residual activity,JAK3 JH1 JH2 (human),105%
same,residual activity,LIMK1 (human),96%
same,residual activity,MAP2K1 (human),101%
same,residual activity,MAPK3 (human),103%
same,residual activity,MAPKAPK2 (human),112%
same,residual activity,MAPKAPK5 (human),90.1%
same,residual activity,PAK3 (human),94.6%
same,residual activity,PAK4 (human),115%
same,residual activity,PDGFRA (human),93%
same,residual activity,PDGFRB (human),125%
same,residual activity,PDPK1 (human),90%
same,residual activity,PHKG2 (human),105%
same,residual activity,PIM3 (human),108%
same,residual activity,PRKCE (human),92.4%
same,residual activity,PRKD2 (human),97.3%
same,residual activity,PTK2 (human),101%
same,residual activity,RPS6KA4 KD2 (human),101%
same,residual activity,RPS6KA5 KD2 (human),99.5%
same,residual activity,SLK (human),88.9%
same,residual activity,STK11 (human),100%
same,residual activity,TEC (human),97.7%
same,residual activity,TXK (human),96.9%
same,residual activity,[1],108%
